Assay results: patent US10510981B2, “Organic light-emitting diode display panel, fabrication method, and electronic apparatus” (Shanghai Tianma AM-OLED Co., Ltd., priority 2017, dated 2019)
Converted amounts (≈) assume the structure as drawn.

Test: solubility of the compound adopted in the capping layer
Assay type: physicochemical
Details: thermodynamic from solid, saturated solution, liquid chromatography against a standard curve, solvent not given
Description: The test methods may include: • (1) measuring the solubility of the compound adopted in the capping layer, where the test method may include: testing samples with different concentrations of the compound by Ultimate3000 liquid chromatographic instrument manufactured by company “waters”, plotting a standard curve, then testing a saturated solution, and calculating the solubility by combining the standard curve; • (2) measuring light extraction efficiency by an UVISEB ellipsometer from HORIBA (China) Trading Co., Ltd.; and • (3) measuring lifetime by a LTS-1004DC life tester with from supplier ENC.

| SMILES | solubility [µg/mL] |
| --- | --- |
| Cc1cc(-c2ccc(N(c3ccc(-c4ccc(-c5ccccc5)cc4)cc3)c3ccc(-c4ccc(-c5ccccc5)cc4)cc3)c(C)c2)ccc1N(c1ccc(-c2ccc(-c3ccccc3)cc2)cc1)c1ccc(-c2ccc(-c3ccccc3)cc2)cc1 [reference compound] | 430 (≈ 382 µM) |
| CCCCc1ccc(N(c2ccc(C)cc2C)c2ccc(-c3ccc(N(c4ccc(CCCC)cc4)c4ccc(C)cc4C)c(C)c3)cc2C)cc1 | 312 (≈ 455 µM) |
| C=Cc1ccc(N(c2ccc(CCCC)cc2)c2ccc(-c3ccc(N(c4ccc(CCCC)cc4)c4ccc(C=C)c(C)c4)c(C)c3)cc2C)cc1C | 300 (≈ 423 µM) |
| CCCCc1ccc(N(c2ccc(-c3ccc(N(c4ccc(CCCC)cc4)C4CCCCC4)c(C)c3)cc2C)C2CCCCC2)cc1 [reference compound] | 566 (≈ 883 µM) |
| Cc1cc(-c2ccc(N(c3ccc(-c4ccccc4)cc3)c3ccc(-c4ccccc4)cc3)c(C)c2)ccc1N(c1ccc(-c2ccccc2)cc1)c1ccc(-c2ccccc2)cc1 | 211 (≈ 257 µM) |
| CCc1ccc(-c2ccc(N(c3ccc(-c4ccc(CC)cc4)cc3)c3ccc(-c4ccc(N(c5ccc(-c6ccc(CC)cc6)cc5)c5ccc(-c6ccc(CC)cc6)cc5)c(C)c4)cc3C)cc2)cc1 | 210 (≈ 225 µM) |

Further lines, results first:

| solubility [µg/mL] | SMILES |
| --- | --- |
| 210 (≈ 307 µM) | CCCCc1ccc(N(c2ccc(C)c(C)c2)c2ccc(-c3ccc(N(c4ccc(CCCC)cc4)c4ccc(C)c(C)c4)c(C)c3)cc2C)cc1 |
| 309 (≈ 491 µM) | Cc1ccc(N(c2ccc(-c3ccc(N(c4ccc(C(C)C)cc4)c4ccc(C)cc4C)cc3)cc2)c2ccc(C(C)C)cc2)c(C)c1 |
| 298 (≈ 423 µM) | C#Cc1ccc(N(c2ccc(CCCC)cc2)c2ccc(-c3ccc(N(c4ccc(CCCC)cc4)c4ccc(C#C)c(C)c4)c(C)c3)cc2C)cc1C |
| 205 (≈ 312 µM) | Cc1ccc(N(c2ccc(C(C)C)cc2)c2ccc(-c3ccc(N(c4ccc(C(C)C)cc4)c4ccc(C)cc4C)c(C)c3)cc2C)c(C)c1 |
| 340 (≈ 496 µM) | CCCCc1ccc(N(c2ccc(-c3ccc(N(c4ccc(C)c(C)c4)c4ccc(CCCC)c(C)c4)cc3)cc2)c2ccc(C)c(C)c2)cc1C |
